Test results: patent publication US9808003B2, “Herbicidally active 2-(substituted-phenyl)-cyclopentane-1,3-dione compounds and derivatives thereof” (Syngenta Limited, priority 2013, dated 2017)

Assays:
Experiment in all cases: Test 1A glasshouse assay, post-emergence herbicidal activity
Assay type in all cases: in vivo
[1] = system: Alopecurus myosuroides (ALOMY); details: Alopecurus myosuroides, 312 h, application rate 250 g/ha, 13 days after application, visual (100%=total damage; 0%=no damage), read-out: Post-emergence Herbicidal Activity (% Phytotoxicity) ALOMY
Experimental: (§1) Seeds of a variety of test species were sown in standard soil in pots. After cultivation for one day (pre-emergence) or after 8 days cultivation (post-emergence) under controlled conditions in a glasshouse (at 24/16° C., day/night; 14 hours light; 65% humidity), the plants were sprayed with an aqueous spray solution derived from the formulation of the technical active ingredient in acetone/water (50:50) solution containing 0.5% Tween 20 (polyoxyethelyene sorbitan monolaurate, CAS RN 9005-64-5). The test plants were then grown under controlled conditions in a glasshouse (at 24/16° C., day/night; 14 hours light; 65% humidity) and watered twice daily. 13 days after application of the test herbicide, for pre- and post-emergence, the test was evaluated visually for percentage phytotoxicity to the plant (where 100%=total damage to plant; 0%=no damage to plant).
(§2) Lolium perenne (LOLPE), Alopecurus myosuroides (ALOMY), Echinochloa crus-galli (ECHCG), and Avena fatua (AVEFA); these are all grassy monocotyledonous weeds.

Avena fatua (AVEFA) = details: Avena fatua, 312 h, application rate 250 g/ha, 13 days after application, visual (100%=total damage; 0%=no damage), read-out: Post-emergence Herbicidal Activity (% Phytotoxicity) AVEFA
Experimental: as §1, §2

[2] = system: Echinochloa crus-galli (ECHCG); details: Echinochloa crus-galli, 312 h, application rate 250 g/ha, 13 days after application, visual (100%=total damage; 0%=no damage), read-out: Post-emergence Herbicidal Activity (% Phytotoxicity) ECHCG
Experimental: as §1, §2

Lolium perenne (LOLPE) = details: Lolium perenne, 312 h, application rate 250 g/ha, 13 days after application, visual (100%=total damage; 0%=no damage), read-out: Post-emergence Herbicidal Activity (% Phytotoxicity) LOLPE
Experimental: as §1, §2

SMILES	pest or weed control at 250 g/ha [1] [%]	pest or weed control at 250 g/ha (Avena fatua (AVEFA)) [%]	pest or weed control at 250 g/ha [2] [%]	pest or weed control at 250 g/ha (Lolium perenne (LOLPE)) [%]
COc1cc(Cl)nc(C(=O)NCCC2CC(=O)C(c3c(C)cc(C)cc3C)C2=O)c1 (stereo not drawn) [Compound A65]	100	70	80	80
Cc1cc(C)c(C2C(=O)CC(CCNC(=O)c3cccc(N)n3)C2=O)c(C)c1 (stereo not drawn) [Compound A66]	80	40	70	60
COc1cc(OC)nc(C(=O)NCCC2CC(=O)C(c3c(C)cc(C)cc3C)C2=O)n1 (stereo not drawn) [Compound A69]	50	70	30	60
Cc1cc(C)c(C2C(=O)CC(CCNC(=O)c3ncc(C)nc3N)C2=O)c(C)c1 (stereo not drawn) [Compound A70]	100	90	90	100
Cc1cc(C)c(C2C(=O)CC(CCNC(=O)c3nc(C)oc3C(F)(F)F)C2=O)c(C)c1 (stereo not drawn) [Compound A71]	100	90	80	100
Cc1cc(C)c(C2C(=O)CC(CCNC(=O)c3cc(C)nn3C)C2=O)c(C)c1 (stereo not drawn) [Compound A72]	90	90	70	90
Cc1cc(C)c(C2C(=O)CC(CCNC(=O)c3csc(C)n3)C2=O)c(C)c1 (stereo not drawn) [Compound A73]	90	90	90	80
Cc1cc(C)c(C2C(=O)CC(CCNC(=O)c3n[nH]c4ccccc34)C2=O)c(C)c1 (stereo not drawn) [Compound A74]	90	30	70	80
Cc1cc(C)c(C2C(=O)CC(CCNC(=O)c3cc(C)n(C)n3)C2=O)c(C)c1 (stereo not drawn) [Compound A75]	90	90	90	90
Cc1cc(C)c(C2C(=O)CC(CCNC(=O)c3c(C)nc4ccccn34)C2=O)c(C)c1 (stereo not drawn) [Compound A76]	70	90	80	60
Cc1cc(C)c(C2C(=O)CC(CCNC(=O)c3nn(C)cc3C(F)(F)F)C2=O)c(C)c1 (stereo not drawn) [Compound A77]	70	90	90	90
Cc1cc(C)c(C2C(=O)CC(CCNC(=O)c3nc(C)ncc3Br)C2=O)c(C)c1 (stereo not drawn) [Compound A78]	80	80	80	60
Cc1cc(C)c(C2C(=O)CC(CCNC(=O)c3sc(C)nc3C)C2=O)c(C)c1 (stereo not drawn) [Compound A79]	80	80	70	70
CCc1cc(Br)cc(C)c1C1C(=O)CC(CCNC(=O)c2ccccn2)C1=O (stereo not drawn) [Compound A83]	100	100	100	100
CC#Cc1cc(C)c(C2C(=O)CC(CCNC(=O)c3ccccn3)C2=O)c(CC)c1 (stereo not drawn) [Compound A84, N-[2-[3-(2-ethyl-6-methyl-4-prop-1-ynyl-phenyl)-2,4-dioxo-cyclopentyl]ethyl]pyridine-2-carboxamide]	100	100	100	100
